{"source": "PubChem BioAssay AID1963427", "about": "(Molecular Pharmacology Branch, DTP, NCI, 2024)", "system": "317291-083-R-J1-PDC complex spheroid growth", "experiment": "Anticancer human tumor 317291-083-R-J1-PDC patient-derived soft tissue sarcoma cell line growth inhibition [Asc]", "conditions": "for viability, T/C: stronger effect = lower value", "how_it_was_run": "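Concentration series start at each agent's clinical Cmax, or at 10 microM when none is established, and drop in half-log steps; agents are applied alone or together to complex spheroids built with HUVEC and hMSC.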", "key": {"[1]": {"conditions": "curve of first compound, second compound 0.00949 µM"}, "[2]": {"conditions": "curve of first compound, second compound 0.03 µM"}, "[3]": {"conditions": "curve of first compound, second compound 0.0949 µM"}, "[4]": {"conditions": "curve of first compound, second compound 0.3 µM"}, "[5]": {"conditions": "curve of first compound, second compound 0.949 µM"}, "[6]": {"conditions": "curve of first compound, second compound 3 µM"}, "[7]": {"conditions": "second compound 0.00949 µM, first compound 0.00316 µM"}, "[8]": {"conditions": "second compound 0.00949 µM, first compound 0.01 µM"}, "[9]": {"conditions": "second compound 0.00949 µM, first compound 0.0316 µM"}, "[10]": {"conditions": "second compound 0.00949 µM, first compound 0.1 µM"}, "[11]": {"conditions": "second compound 0.00949 µM, first compound 0.316 µM"}, "[12]": {"conditions": "second compound 0.00949 µM, first compound 1 µM"}, "[13]": {"conditions": "second compound 0.03 µM, first compound 0.00316 µM"}, "[14]": {"conditions": "second compound 0.03 µM, first compound 0.01 µM"}, "[15]": {"conditions": "second compound 0.03 µM, first compound 0.0316 µM"}, "[16]": {"conditions": "second compound 0.03 µM, first compound 0.1 µM"}, "[17]": {"conditions": "second compound 0.03 µM, first compound 0.316 µM"}, "[18]": {"conditions": "second compound 0.03 µM, first compound 1 µM"}, "[19]": {"conditions": "second compound 0.0949 µM, first compound 0.00316 µM"}, "[20]": {"conditions": "second compound 0.0949 µM, first compound 0.01 µM"}, "[21]": {"conditions": "second compound 0.0949 µM, first compound 0.0316 µM"}, "[22]": {"conditions": "second compound 0.0949 µM, first compound 0.1 µM"}, "[23]": {"conditions": "second compound 0.0949 µM, first compound 0.316 µM"}, "[24]": {"conditions": "second compound 0.0949 µM, first compound 1 µM"}, "[25]": {"conditions": "second compound 0.3 µM, first compound 0.00316 µM"}, "[26]": {"conditions": "second compound 0.3 µM, first compound 0.01 µM"}, "[27]": {"conditions": "second compound 0.3 µM, first compound 0.0316 µM"}, "[28]": {"conditions": "second compound 0.3 µM, first compound 0.1 µM"}, "[29]": {"conditions": "second compound 0.3 µM, first compound 0.316 µM"}, "[30]": {"conditions": "second compound 0.3 µM, first compound 1 µM"}, "[31]": {"conditions": "second compound 0.949 µM, first compound 0.00316 µM"}, "[32]": {"conditions": "second compound 0.949 µM, first compound 0.01 µM"}, "[33]": {"conditions": "second compound 0.949 µM, first compound 0.0316 µM"}, "[34]": {"conditions": "second compound 0.949 µM, first compound 0.1 µM"}, "[35]": {"conditions": "second compound 0.949 µM, first compound 0.316 µM"}, "[36]": {"conditions": "second compound 0.949 µM, first compound 1 µM"}, "[37]": {"conditions": "second compound 3 µM, first compound 0.00316 µM"}, "[38]": {"conditions": "second compound 3 µM, first compound 0.01 µM"}, "[39]": {"conditions": "second compound 3 µM, first compound 0.0316 µM"}, "[40]": {"conditions": "second compound 3 µM, first compound 0.1 µM"}, "[41]": {"conditions": "second compound 3 µM, first compound 0.316 µM"}, "[42]": {"conditions": "second compound 3 µM, first compound 1 µM"}}, "note": "pIC50: −log10 of the molar value. Several values for one entry are separate records, joined by “and”; a condition that tells them apart may be missing. Equal values may be shown once.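 Also: compound exposure lasted seven days after spheroids formed for three days.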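 For viability, T/C in this document: 100% = DMSO vehicle control wells.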", "data": [{"smiles": "CCN1CCN(Cc2ccc(Nc3ncc(F)c(-c4cc(F)c5nc(C)n(C(C)C)c5c4)n3)nc2)CC1", "note": "+ CCN1C(C(=O)NC23CCC(C(=O)O)(CC2)CC3)C(c2cccc(Cl)c2F)C2(C(=O)Nc3cc(Cl)ccc32)C12CCCCC2", "values": [{"measurement": "pIC50", "setting": "[1]", "value": "< 6.00"}, {"measurement": "pIC50", "setting": "[2]", "value": "< 6.00"}, {"measurement": "pIC50", "setting": "[3]", "value": 6.09}, {"measurement": "pIC50", "setting": "[4]", "value": "< 6.00"}, {"measurement": "pIC50", "setting": "[5]", "value": 6.08}, {"measurement": "pIC50", "setting": "[6]", "value": "< 6.00"}, {"measurement": "viability, T/C", "setting": "[7]", "value": 95, "unit": "%"}, {"measurement": "viability, T/C", "setting": "[8]", "value": 95.8, "unit": "%"}, {"measurement": "viability, T/C", "setting": "[9]", "value": 100, "unit": "%"}, {"measurement": "viability, T/C", "setting": "[10]", "value": 115, "unit": "%"}, {"measurement": "viability, T/C", "setting": "[11]", "value": 91.2, "unit": "%"}, {"measurement": "viability, T/C", "setting": "[12]", "value": 55.4, "unit": "%"}, {"measurement": "viability, T/C", "setting": "[13]", "value": 99.7, "unit": "%"}, {"measurement": "viability, T/C", "setting": "[14]", "value": 101, "unit": "%"}, {"measurement": "viability, T/C", "setting": "[15]", "value": 97.9, "unit": "%"}, {"measurement": "viability, T/C", "setting": "[16]", "value": 103, "unit": "%"}, {"measurement": "viability, T/C", "setting": "[17]", "value": 80.1, "unit": "%"}, {"measurement": "viability, T/C", "setting": "[18]", "value": 53, "unit": "%"}, {"measurement": "viability, T/C", "setting": "[19]", "value": 97.7, "unit": "%"}, {"measurement": "viability, T/C", "setting": "[20]", "value": 89.3, "unit": "%"}, {"measurement": "viability, T/C", "setting": "[21]", "value": 97, "unit": "%"}, {"measurement": "viability, T/C", "setting": "[22]", "value": 112, "unit": "%"}, {"measurement": "viability, T/C", "setting": "[23]", "value": 88.4, "unit": "%"}, {"measurement": "viability, T/C", "setting": "[24]", "value": 41.6, "unit": "%"}, {"measurement": "viability, T/C", "setting": "[25]", "value": 100, "unit": "%"}, {"measurement": "viability, T/C", "setting": "[26]", "value": 93.1, "unit": "%"}, {"measurement": "viability, T/C", "setting": "[27]", "value": 80.6, "unit": "%"}, {"measurement": "viability, T/C", "setting": "[28]", "value": 86.4, "unit": "%"}, {"measurement": "viability, T/C", "setting": "[29]", "value": 68.1, "unit": "%"}, {"measurement": "viability, T/C", "setting": "[30]", "value": 79.6, "unit": "%"}, {"measurement": "viability, T/C", "setting": "[31]", "value": 106, "unit": "%"}, {"measurement": "viability, T/C", "setting": "[32]", "value": 96.7, "unit": "%"}, {"measurement": "viability, T/C", "setting": "[33]", "value": 79.1, "unit": "%"}, {"measurement": "viability, T/C", "setting": "[34]", "value": 91.1, "unit": "%"}, {"measurement": "viability, T/C", "setting": "[35]", "value": 73.1, "unit": "%"}, {"measurement": "viability, T/C", "setting": "[36]", "value": 44.5, "unit": "%"}, {"measurement": "viability, T/C", "setting": "[37]", "value": 77.5, "unit": "%"}, {"measurement": "viability, T/C", "setting": "[38]", "value": 77, "unit": "%"}, {"measurement": "viability, T/C", "setting": "[39]", "value": 78.9, "unit": "%"}, {"measurement": "viability, T/C", "setting": "[40]", "value": 72.2, "unit": "%"}, {"measurement": "viability, T/C", "setting": "[41]", "value": 56.6, "unit": "%"}, {"measurement": "viability, T/C", "setting": "[42]", "value": 60.9, "unit": "%"}]}, {"smiles": "COc1c(OCCCN2CCOCC2)ccc2c3n(c(=NC(=O)c4cnc(N)nc4)nc12)CCN3", "note": "+ CCN1C(C(=O)NC23CCC(C(=O)O)(CC2)CC3)C(c2cccc(Cl)c2F)C2(C(=O)Nc3cc(Cl)ccc32)C12CCCCC2", "values": [{"measurement": "pIC50", "setting": "[1]", "value": 6.75}, {"measurement": "pIC50", "setting": "[2]", "value": 6.74}, {"measurement": "pIC50", "setting": "[3]", "value": 6.67}, {"measurement": "pIC50", "setting": "[4]", "value": 6.76}, {"measurement": "pIC50", "setting": "[5]", "value": 6.74}, {"measurement": "pIC50", "setting": "[6]", "value": 6.90}, {"measurement": "viability, T/C", "setting": "[7]", "value": 95.6, "unit": "%"}, {"measurement": "viability, T/C", "setting": "[8]", "value": 85.8, "unit": "%"}, {"measurement": "viability, T/C", "setting": "[9]", "value": 85, "unit": "%"}, {"measurement": "viability, T/C", "setting": "[10]", "value": 64.9, "unit": "%"}, {"measurement": "viability, T/C", "setting": "[11]", "value": 34.6, "unit": "%"}, {"measurement": "viability, T/C", "setting": "[12]", "value": 16.3, "unit": "%"}, {"measurement": "viability, T/C", "setting": "[13]", "value": 95.6, "unit": "%"}, {"measurement": "viability, T/C", "setting": "[14]", "value": 79.2, "unit": "%"}, {"measurement": "viability, T/C", "setting": "[15]", "value": 79.5, "unit": "%"}, {"measurement": "viability, T/C", "setting": "[16]", "value": 56.2, "unit": "%"}, {"measurement": "viability, T/C", "setting": "[17]", "value": 43.8, "unit": "%"}, {"measurement": "viability, T/C", "setting": "[18]", "value": 13.9, "unit": "%"}, {"measurement": "viability, T/C", "setting": "[19]", "value": 93.7, "unit": "%"}, {"measurement": "viability, T/C", "setting": "[20]", "value": 83.4, "unit": "%"}, {"measurement": "viability, T/C", "setting": "[21]", "value": 81.3, "unit": "%"}, {"measurement": "viability, T/C", "setting": "[22]", "value": 79.4, "unit": "%"}, {"measurement": "viability, T/C", "setting": "[23]", "value": 34.8, "unit": "%"}, {"measurement": "viability, T/C", "setting": "[24]", "value": 16.9, "unit": "%"}, {"measurement": "viability, T/C", "setting": "[25]", "value": 120, "unit": "%"}, {"measurement": "viability, T/C", "setting": "[26]", "value": 76.9, "unit": "%"}, {"measurement": "viability, T/C", "setting": "[27]", "value": 84.7, "unit": "%"}, {"measurement": "viability, T/C", "setting": "[28]", "value": 67, "unit": "%"}, {"measurement": "viability, T/C", "setting": "[29]", "value": 37.1, "unit": "%"}, {"measurement": "viability, T/C", "setting": "[30]", "value": 17.4, "unit": "%"}, {"measurement": "viability, T/C", "setting": "[31]", "value": 85.1, "unit": "%"}, {"measurement": "viability, T/C", "setting": "[32]", "value": 74, "unit": "%"}, {"measurement": "viability, T/C", "setting": "[33]", "value": 86.8, "unit": "%"}, {"measurement": "viability, T/C", "setting": "[34]", "value": 58.5, "unit": "%"}, {"measurement": "viability, T/C", "setting": "[35]", "value": 39.2, "unit": "%"}, {"measurement": "viability, T/C", "setting": "[36]", "value": 15.4, "unit": "%"}, {"measurement": "viability, T/C", "setting": "[37]", "value": 88.2, "unit": "%"}, {"measurement": "viability, T/C", "setting": "[38]", "value": 71, "unit": "%"}, {"measurement": "viability, T/C", "setting": "[39]", "value": 73.3, "unit": "%"}, {"measurement": "viability, T/C", "setting": "[40]", "value": 55, "unit": "%"}, {"measurement": "viability, T/C", "setting": "[41]", "value": 32.8, "unit": "%"}, {"measurement": "viability, T/C", "setting": "[42]", "value": 15.2, "unit": "%"}]}, {"smiles": "C=CC(=O)N1CCN(c2nc(=O)n(-c3c(C)ccnc3C(C)C)c3nc(-c4c(O)cccc4F)c(F)cc23)C(C)C1", "note": "(stereo unspecified)", "values": [{"measurement": "viability, T/C", "setting": "compound 0.0316 µM", "value": "94.7% and 115% and 91.3%"}, {"measurement": "viability, T/C", "setting": "compound 0.1 µM", "value": "116% and 91.4% and 84%"}, {"measurement": "viability, T/C", "setting": "compound 0.316 µM", "value": "97.3% and 95.1% and 99.8%"}, {"measurement": "viability, T/C", "setting": "compound 1 µM", "value": "117% and 90.1% and 95.4%"}, {"measurement": "viability, T/C", "setting": "compound 3.16 µM", "value": "92.4% and 89.8% and 78.8%"}, {"measurement": "viability, T/C", "setting": "compound 10 µM", "value": "61% and 73.1% and 78%"}, {"measurement": "pIC50", "setting": "curve of compound", "value": "< 5.00"}]}]}
